These results are taken from US20230277591A1 (JULIUS-MAXIMILIANS-UNIVERSITÄT WÜRZBURG, priority 2017, published 2023).

The subject of data set [1] is JeKo-1 mantle cell lymphoma. In words: Flow cytometric analysis of FLT3 expression after FLT3 inhibitor treatment, JeKo-1. Type of data set: cell-based, human. The note with it: JeKo-1, wild-type FLT3. As for the experimental part:
(§1) Cell surface expression of FLT3 (CD135) was analyzed using a conjugated mouse-anti-human-FLT3 mAb (clone 4G8, BD Pharmagin, BD Biosciences, Germany) and mouse IgG1 isotype control (BD Pharmagin). In brief, 1×10^6 cells were washed, resuspended in 100 µL PBS/0.5% fetal calf serum and stained with 5 µL of anti-FLT3 mAb or isotype for 30 minutes at 4° C.
A general note: A flow cytometer gives signals particle by particle.

The test system of data set [2] is MOLM-13 AML cells. In words: Flow cytometric analysis of surface expression (FLT3, CD33, CD123) after FLT3 inhibitor treatment, MOLM-13. The data set is classed as cell-based, human. The note with it: for time to decrease of FLT3 expression to baseline levels after withdrawal of drug: MOLM-13, midostaurin: baseline or slightly below baseline. As for the experimental part: as §1
A complete medium change was performed every 7 days, MOLM-13 cells adjusted to 1×10^6/mL medium and 2 mL of this cell suspension plated per well in […] (Costar, Corning, NJ). After 2-3 weeks of culture with 10 nM midostaurine, MOLM-13 cells were exposed to exponentially increasing concentration of midostaurine for next 8-10 weeks to reach 50 nM midostaurin.

For data set [3], the system named is MV4;11 AML cells. Kind of data set: Flow cytometric analysis of surface expression after FLT3 inhibitor treatment, MV4;11. Type of data set: cell-based, human. As for the experimental part: as §1
For the next data set, the system named is THP-1 AML cells. Kind of data set: Flow cytometric analysis of FLT3 expression after FLT3 inhibitor treatment, THP-1. Type of data set: cell-based, human. The note with it: THP-1, wild-type FLT3. As for the experimental part: as §1
Data set [4] relates to MOLM-13 AML cells. Kind of data set: MOLM-13 xenograft model of AML in NSG mice. Type of data set: in vivo, mouse. As for the experimental part: (§2) All experiments were approved by the Institutional Animal Care and Use Committees of the participating institutions. NOD.Cg-Prkdc^scid Il2rg^tm1Wjl/SzJ (NSG) mice (female, 6-8 week old) were purchased from Charles River or bred in-house. Mice were inoculated with 1×10^6 ffluc_GFP^+ MOLM-13 AML cells by tail vein injection on day 0, and received a single dose of 5×10^6 T cells (in 200 µL of PBS/0.5% FCS) by tail vein injection on day 7. Crenolanib [15 mg/kg; 200 µL of 30% glycerol formal (Sigma Aldrich, Munich, Germany)] was administered intraperitoneally (i.p.) Monday-Friday for 3 consecutive weeks. AML progression/regression was assessed by serial bioluminescence imaging following i.p. administration of D-luciferin substrate (0.3 mg/g body weight) (Biosynth, Staad, Switzerland) using an IVIS Lumina imaging system (Perkin Elmer, Waltham, Massachusetts). Data was analyzed using Living Image software (Perkin Elmer).
as §2, with “Crenolanib [15 mg/kg; 200 µL of 30% glycerol formal (Sigma Aldrich, Munich, Germany)] was administered intraperitoneally (i.p.) Monday-Friday for 3 consecutive weeks.” left out

For data set [5], the system named is K562 erythro-myeloid leukemia. Kind of data set: Flow cytometric analysis of FLT3 expression after FLT3 inhibitor treatment, K562. Type of data set: cell-based, human. Conditions: K562, wild-type FLT3. The method, then:
as §1

For data set [6], the system named is MV4;11 AML cells. In words: Antibody-dependent cellular cytotoxicity (ADCC) assay. Type of data set: cell-based, human. The note with it: mAb 5000 ng/mL, PBMC 50:1, 24 h. As for the experimental part: MV4;11 cells were plated at a concentration of 1×10^6/mL in 1 mL per well in 24-well plates (Costar, Corning, NJ).
MV4;11 AML cells transduced with firefly luciferase (ffluc) were utilized for ADCC assays. MV4;11 AML cells were pre-treated with FLT3 inhibitors for 7 days or were left untreated. Target cells were co-incubated with healthy donor derived PBMCs at an effector-to-target ratio of 50:1 in triplicate wells of 96-well flat-bottom plates in the presence of solvent control, IgG1 isotype control (5000 ng/mL) or anti-FLT3 BV10 mAb (5000 ng/mL) (Biolegend, London, UK). ADCC was determined in a bioluminescence-based assay after 24 hours^40. Luciferin substrate was added to the co-culture and the decrease in luminescence signal was measured using a luminometer (Tecan, Männedorf, Switzerland). The percentage of viable cells was calculated using the following formula: % viability = bioluminescence signal in the presence of effector cells and BV10 mAb (with or without FLT3 inhibitor pre-treatment) × 100 / bioluminescence signal in the control condition.

[7] abbreviates: 4G8 CAR (Example 1), crenolanib 15 mg/kg i.p.

“Also recorded” adds a separate entry of the source.

On to `CC1(COc2ccc3c(c2)ncn3-c2ccc3cccc(N4CCC(N)CC4)c3n2)COC1` [crenolanib], for which, in data set [1], the “increase in FLT3 expression upon exposure” value is “did not occur”. Further, the “FLT3 surface protein (MFI) compared to MOLM-13native” value in the data set on MOLM-13 AML cells [2] (10 nM midostaurin 2-3 weeks, 10 nM crenolanib 5 days, 1 nM quizartinib 5 days, p < 0.05) was “significantly higher levels”. Besides, in the data set with MOLM-13 AML cells [2], the “time to decrease of FLT3 expression to baseline levels after withdrawal of drug” value is reported as at most 2 days. Besides, the “FLT3 expression upon re-exposure to the drug” value in the data set with MOLM-13 AML cells [2] (MOLM-13 after withdrawal) is “increased again”. Moreover, in the data set on MOLM-13 AML cells [2] (inhibitor-treated vs native), the “CD33 expression on MOLM-13” value was “not affected” and the “CD123 expression on MOLM-13” value is recorded as “not affected”. The “FLT3 expression upon exposure” value in the data set on MV4;11 AML cells [3] (MV4;11 (FLT3-ITD+/+)) is listed as “increase”. In the data set on MV4;11 AML cells [3] (inhibitor-treated), the “CD33 expression on MV4;11” value is listed as “not affected” and the “CD123 expression on MV4;11” value was “not affected”. The “increase in FLT3 expression upon exposure” value with THP-1 AML cells is recorded as “did not occur”. Further, the overall response rate in the data set with MOLM-13 AML cells [4] (4G8 CAR (Example 1), 5×10^6 T cells day 7, crenolanib 15 mg/kg i.p., n=8 per group) is listed as 0%. Besides, in the data set on MOLM-13 AML cells [4] (setting [7]), the “AML cells in peripheral blood, bone marrow and spleen at experiment endpoint” value is on record as “high degree of leukemia infiltration”; the antileukemia efficacy result is on record as “only a minute antileukemia effect”. The “FLT3 on MOLM-13 cells recovered from peripheral blood and bone marrow at experiment endpoint” value with MOLM-13 AML cells [4] (crenolanib monotherapy 15 mg/kg i.p.) is “uniformly and strongly upregulated”. The “effect of the drug per se on (viability and) function of FLT3 CAR-T cells” value in the data set on FLT3 CAR-T cells is reported as “not affected; also recorded: did not affect”. Moreover, the “increase in FLT3 expression upon exposure” value in data set [5] is on record as “did not occur”.
For the molecule `CO[C@@H]1[C@H](N(C)C(=O)c2ccccc2)C[C@H]2O[C@]1(C)n1c3ccccc3c3c4c(c5c6ccccc6n2c5c31)C(=O)NC4` [midostaurin], in the data set on MOLM-13 AML cells [2], the “time to decrease of FLT3 expression to baseline levels after withdrawal of drug” value is recorded as at most 2 days. In addition, the “mice with leukemia reduction (response rate)” value with MOLM-13 AML cells [4] (BV10 CAR (Example 3), midostaurin experiment, BL day 7 to day 11, n=4 per group) was 0%. For the same molecule, the “MFI of FLT3 higher, mouse with lowest FLT3 expression vs mouse without drug” value in the data set with MOLM-13 AML cells [4] (midostaurin 1 mg/kg i.p., bone marrow MOLM-13) stood at 30%. Further, the “effect of the drug per se on (viability and) function of FLT3 CAR-T cells” value in the data set on FLT3 CAR-T cells is reported as “not affected; also recorded: did not affect”.

B1: BV10 mAb: anti-FLT3 monoclonal antibody BV10 (Biolegend) used in ADCC assay (antibody, V domains shown)
VH: QVQLKQSGPGLVQPSQSLSITCTVSGFSLTNYGLHWVRQSPGKGLEWLGVIWSGGSTDYNAAFISRLSISKDNSKSQVFFKMNSLQADDTAIYYCARKGGIYYANHYYAMDYWGQGTSVTVSS
VL: DIVMTQSPSSLSVSAGEKVTMSCKSSQSLLNSGNQKNYMAWYQQKPGQPPKLLIYGASTRESGVPDRFTGSGSGTDFTLTISSVQAEDLAVYYCQNDHSYPLTFGAGTKLELKR
On to B1, for which the “MV4;11 cells eliminated (ADCC)” value was found to be 39% in the data set with MV4;11 AML cells [6] (crenolanib-treated MV4;11 (10 nM, 7 days)); 26% in the data set on MV4;11 AML cells [6] (midostaurin-treated MV4;11 (50 nM, 7 days)); 46% with MV4;11 AML cells [6] (quizartinib-treated MV4;11 (1 nM, 7 days)); 13% in the data set with MV4;11 AML cells [6] (without FLT3 inhibitor pre-treatment).
